Laboratory results reported in patent US5932242A, “Ether lipid-containing pharmaceutical compositions and therapeutic uses thereof” (The Liposome Company, Inc., priority 1996, dated 1999).

Legend:
[1] = Monolayer mean molecular area per molecule (MMAM) measurement, Langmuir-Blodgett mini-trough; type: physicochemical; details: single-lipid monolayer, 23° C., 10 mM HEPES, 150 mM NaCl, pH 7.2, extrapolated to zero surface pressure
Text: A measure of the amount of space occupied by a lipid molecule is the mean area ("MMAM") that a molecule of the lipid occupies in a monolayer formed of that lipid. MMAM values for various lipids can readily be determined by ordinarily skilled artisans given the teachings of this invention, for example, as set forth in Example 1 below. MMAM values can be determined by first forming a lipid monolayer on the surface of an aqueous medium contained within a suitable trough, by the drop-wise addition of a lipid solution to the surface of the aqueous medium. […] Surface pressures for the different surface areas are recorded, and area-vs.-pressure curves compiled. MMAM values are obtained from these curves by extrapolating the steepest portion of the curve to a lipid's surface area at zero pressure.
The mean area occupied by a lipid molecule in a monolayer formed by a combination of cone-shaped and inverted cone-shaped lipids could be calculated according to the equation A0 =X^1 ·A^1 +X^2 ·A^2 (see Ali et al., the contents of which are incorporated herein by reference), wherein "A0 " is the MMAM expected of the lipids in the two component system, X^1 and X^2 are the relative mole percentages of the lipids in the combination, and A^1 and A^2 are the measured MMAM values of the individual lipids. Accordingly, the combination of lipids in a two-component monolayer would be expected to result in a mean molecular area per lipid molecule ("MMAMexpected ") reflective of the relative proportions in which each of the constituent lipids is present in the combination. That is, calculated in accordance with the above equation, the MMAM value expected of the lipids would be additive.
The mean molecular area per molecule of formulations containing the ether lipid ET-18-OCH3 was determined using a Langmuir-Blodgett mini-trough equipped with a dual barrier mechanism and a Wilhelmy balance, all obtained from KSV Instruments (Trumbull, Conn.). ET-18-OCH3 formulations were prepared from lipid powders that were dissolved in a solvent system of hexane:ethanol 9:1. Single lipid solutions and mixtures were made to contain an overall lipid concentration of approximately 1.5 mM which was quantitated precisely by phosphate (Chen et al., 1956) and cholesterol assays (Rudel & Morris, 1973). Monolayers were formed by dropwise addition of sample on to the aqueous surface (10 mM HEPES, 150 mM NaCl buffer, pH 7.2) at the center of the trough. Sample was added until the surface pressure just started to rise above zero, at which time the exact volume of sample added was recorded. After waiting three minutes for solvent evaporation and monolayer stabilization, the surface area of the monolayer was reduced at a rate of 15 cm^2 /min, and surface pressure was recorded. The solution level was maintained 1 mm below the top edge of the trough to avoid leakage; contact was maintained with the barriers (composed of Delrin) due to their hydrophilic nature.
Pressure vs. area curves were compiled from data obtained as described above (see FIGS. 1 and 2), and MMAM values were determined by extrapolating the steepest portion of the curve to the value at zero surface pressure. […] All experiments were done at 23° C. […] MMAMs (A0) were determined for each lipid by extrapolation of the steepest portion of the curves to the value at zero surface pressure; and are as follows: ET-18-OCH3 : 72.8 Å^2; CHOL: 44.8 Å^2; DOPE: 82.3 Å^2; POPC: 82.0 Å^2; and, DOPC: 82.0 Å^2.

[2] = art knowledge; cited from earlier work
human red blood cells = assay: Hemolysis of washed human red blood cells (H50); type: cell-based; details: concluded from hemolysis of 60 mole % ET-18-OCH3 /cholesterol SUVs
Experimental: (§1) The hemolytic activity of ET-18-OCH3 /CHOL, DOPE, POPC or DOPC liposomes, prepared as described below in Example 2, have also been examined, as described hereinbelow in Example 3. Results, presented hereinbelow in FIG. 3, are in the form of the ET-18-OCH3 concentration in the various liposomes required to achieve hemolysis of 50% of the red blood cells present in a sample (H50).
(§2) […] All liposomes were extruded, in order to assure uniform size distribution.
(§3) Hemolysis was assessed as previously described (Perkins et al., 1992). Briefly, each sample was serially diluted with buffer solution and 0.3 ml of each diluted solution was mixed with 0.3 ml of washed human red blood cells [4% in PBS (v/v)]. For controls, 0.3 ml of the red blood cell suspension was mixed with either 0.3 ml of buffer solution (negative hemolysis control) or 0.3 ml of distilled water (positive hemolysis control). Samples and standards were placed in a 37° C. incubator and agitated for 20 hours. Tubes were centrifuged at low speed (2000 g) for 10 minutes to pellet RBCs. Two hundred μl of the supernatant was removed and mixed with 1 ml of water. Hemolysis was quantitated by absorbance at 550 nm using a Shimadzu 2101 UV-Vis Scanning Spectrophotometer (Shimadzu Corp., Kyoto, Japan). One hundred percent hemolysis was defined as the maximum amount of hemolysis obtained from free ET-18-OCH3.

[3] = Hemolysis of washed human red blood cells (H50); type: cell-based; details: human, red blood cells
Experimental: as §1, §2, §3

SMILES	MMAM (A0) of individual lipid [1]	packing parameter [2]	Ability to form stable liposome structures (human red blood cells)	HC50 at 20 h [3]
CC(C)CCC[C@@H](C)[C@H]1CC[C@H]2[C@@H]3CC=C4C[C@@H](O)CC[C@]4(C)[C@H]3CC[C@]12C [CHOL, cholesterol]	44.8 Å^2	1.2-1.3		
CCCCCCCC/C=C\CCCCCCCC(=O)OCC(COP(=O)([O-])OCC[N+](C)(C)C)OC(=O)CCCCCCC/C=C\CCCCCCCC (stereo not drawn) [DOPC, dioleoyl phosphatidylcholine]	82.0 Å^2			
CCCCCCCC/C=C\CCCCCCCC(=O)OCC(COP(=O)(O)OCCN)OC(=O)CCCCCCC/C=C\CCCCCCCC (stereo not drawn) [DOPE, dioleoyl phosphatidylethanolamine]	82.3 Å^2	1.2-1.3		
CCCCCCCCCCCCCCCCCCOC[C@H](COP(=O)([O-])OCC[N+](C)(C)C)OC [ET-18-OCH3, 1-O-octadecyl-2-O-methyl-sn-3-phosphorylcholine]	72.8 Å^2		does not form stable liposome structures above a 1:1 stoichiometry	16 µM
CCCCCCCC/C=C\CCCCCCCC(=O)OC(COC(=O)CCCCCCCCCCCCCCC)COP(=O)([O-])OCC[N+](C)(C)C (stereo not drawn) [POPC, palmitoyloleoyl phosphatidylcholine]	82.0 Å^2			
